Experiments:
SNK-6 (IL-2 2.5 ng/mL) [1] = assay: drug sensitivity score (DSS) (DSS units); higher = more sensitive; extreme values may be limits of the assay; details: 72 h
KAI3 (IL-2 2.5 ng/mL) [2] = assay: as above; details: 72 h
[3] = test system: normal primary NK cells, pool 3 (3 donors) (IL-2 2.5 ng/mL); assay: as above; details: 72 h
NK-YS (IL-2 2.5 ng/mL) [4] = assay: as above; details: 72 h
[5] = test system: normal primary NK cells, pool 2 (3 donors) (IL-2 2.5 ng/mL); assay: as above; details: 72 h
KHYG-1 (IL-2 2.5 ng/mL) [6] = assay: as above; details: 72 h
DERL-7 (IL-2 2.5 ng/mL) [7] = assay: as above; details: 72 h
NK-92 (IL-2 2.5 ng/mL) [8] = assay: as above; details: 72 h
[9] = test system: normal primary NK cells, pool 1 (3 donors) (IL-2 2.5 ng/mL); assay: as above; details: 72 h
[10] = test system: normal primary NK cells, pool 1 (3 donors), resting (IL-2 0 ng/mL); assay: as above; details: 72 h
IMC-1 (IL-2 20 ng/mL) [11] = assay: as above; details: 72 h
YT (IL-2 2.5 ng/mL) [12] = assay: as above; details: 72 h
NKL (IL-2 2.5 ng/mL) [13] = assay: as above; details: 72 h
SNK-6 (IL-2 2.5 ng/mL) [14] = assay: percent inhibition of viability; higher = more inhibition; details: 72 h
KAI3 (IL-2 2.5 ng/mL) [15] = assay: as above; details: 72 h
[16] = test system: normal primary NK cells, pool 3 (3 donors) (IL-2 2.5 ng/mL); assay: as above; details: 72 h
NK-YS (IL-2 2.5 ng/mL) [17] = assay: as above; details: 72 h
[18] = test system: normal primary NK cells, pool 2 (3 donors) (IL-2 2.5 ng/mL); assay: as above; details: 72 h
KHYG-1 (IL-2 2.5 ng/mL) [19] = assay: as above; details: 72 h
DERL-7 (IL-2 2.5 ng/mL) [20] = assay: as above; details: 72 h
NK-92 (IL-2 2.5 ng/mL) [21] = assay: as above; details: 72 h
[22] = test system: normal primary NK cells, pool 1 (3 donors) (IL-2 2.5 ng/mL); assay: as above; details: 72 h
[23] = test system: normal primary NK cells, pool 1 (3 donors), resting (IL-2 0 ng/mL); assay: as above; details: 72 h
IMC-1 (IL-2 20 ng/mL) [24] = assay: as above; details: 72 h
YT (IL-2 2.5 ng/mL) [25] = assay: as above; details: 72 h
NKL (IL-2 2.5 ng/mL) [26] = assay: as above; details: 72 h
[27] = test system: normal NK cells expanded with K562-aAPC; assay: drug sensitivity score (DSS) (DSS units); higher = more sensitive; extreme values may be limits of the assay; details: 72 h; IL-2 2.5 ng/mL
Method: (§1)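 Drug sensitivity and resistance testing on K562-aAPC-expanded normal NK cells: 5 concentrations (10-fold steps over a 10,000-fold range), 72 h at 37 °C, viability by CellTiter-Glo normalised to DMSO and benzethonium chloride controls; DSS from the fitted curve.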

[28] = test system: normal NK cells expanded with K562-aAPC; assay: percent inhibition of viability; higher = more inhibition; details: 72 h, IL-2 2.5 ng/mL
Method: as §1

O=C(c1ccc(/C=C/c2n[nH]c3ccccc23)cc1)N1CCNCC1 [KW-2449] (max concentration tested 2500 nM)
Details	drug sensitivity score
DERL-7 (IL-2 2.5 ng/mL) [7]	2.35
IMC-1 (IL-2 20 ng/mL) [11]	0.89
KAI3 (IL-2 2.5 ng/mL) [2]	0.03
KHYG-1 (IL-2 2.5 ng/mL) [6]	3.4
NK-92 (IL-2 2.5 ng/mL) [8]	0.25
NK-YS (IL-2 2.5 ng/mL) [4]	2.28
NKL (IL-2 2.5 ng/mL) [13]	0
SNK-6 (IL-2 2.5 ng/mL) [1]	4.22
YT (IL-2 2.5 ng/mL) [12]	0
[3]	0.89
[5]	0.03
[9]	0.65
[10]	0
[27]	1.2

percent inhibition of viability [%]
Details	0.25 nM	2.5 nM	25 nM	250 nM	2500 nM
DERL-7 (IL-2 2.5 ng/mL) [20]	-3.07	-3.42	-0.35	-5.82	52
IMC-1 (IL-2 20 ng/mL) [24]	-4.33	-2.55	-3.12	-4.5	-8.66
KAI3 (IL-2 2.5 ng/mL) [15]	-7.2	-3.33	-4.86	-5.15	12.8
KHYG-1 (IL-2 2.5 ng/mL) [19]	-4.37	-3.8	-7.48	-0.63	63.4
NK-92 (IL-2 2.5 ng/mL) [21]	-17.7	-18	-20.5	-12.6	18.9
NK-YS (IL-2 2.5 ng/mL) [17]	-5.66	-7.24	-6.03	0.88	42.9
NKL (IL-2 2.5 ng/mL) [26]	-16.7	-15.7	-8.73	-17	8.68
SNK-6 (IL-2 2.5 ng/mL) [14]	11.8	9.47	14.2	3.56	67.5
YT (IL-2 2.5 ng/mL) [25]	0.95	1.96	-2.99	-1.32	9
[16]	-10.8	-6.97	-9.8	-18.2	-0.01
[18]	0.9	-1.16	-5.56	-9.38	13.4
[22]	0.56	-11.2	-7.09	-3.29	23.3
[23]	-12.6	0.69	-21.6	-1.76	-0.59
[28]	1.55	-7.82	-4.83	-5.26	33

C[C@@H]1C[C@H]2O[C@@H]2/C=C\C=C\C(=O)Cc2c(Cl)c(O)cc(O)c2C(=O)O1 [Radicicol] (max concentration tested 10000 nM)
Details	drug sensitivity score
DERL-7 (IL-2 2.5 ng/mL) [7]	28.9
IMC-1 (IL-2 20 ng/mL) [11]	18.1
KAI3 (IL-2 2.5 ng/mL) [2]	25.1
KHYG-1 (IL-2 2.5 ng/mL) [6]	20.2
NK-92 (IL-2 2.5 ng/mL) [8]	22.8
NK-YS (IL-2 2.5 ng/mL) [4]	20
NKL (IL-2 2.5 ng/mL) [13]	19.4
SNK-6 (IL-2 2.5 ng/mL) [1]	23.3
YT (IL-2 2.5 ng/mL) [12]	14.2
[3]	20.5
[5]	23.6
[9]	20.8
[10]	10.6
[27]	23.9

percent inhibition of viability [%]
Details	1 nM	10 nM	100 nM	1000 nM	10000 nM
DERL-7 (IL-2 2.5 ng/mL) [20]	-0.88	14.3	79.4	100	101
IMC-1 (IL-2 20 ng/mL) [24]	-2.78	3.67	0.43	101	101
KAI3 (IL-2 2.5 ng/mL) [15]	1.19	9.86	58.6	99.8	94.4
KHYG-1 (IL-2 2.5 ng/mL) [19]	0.9	2.76	13.1	101	110
NK-92 (IL-2 2.5 ng/mL) [21]	-1.96	-4.16	34.1	99.2	104
NK-YS (IL-2 2.5 ng/mL) [17]	3.72	7.15	24.6	93.4	99.7
NKL (IL-2 2.5 ng/mL) [26]	-1.4	4.63	30.1	85.8	81.6
SNK-6 (IL-2 2.5 ng/mL) [14]	8	13.2	49.9	96.8	78.6
YT (IL-2 2.5 ng/mL) [25]	-1.95	7.65	16.1	64.4	91.6
[16]	-8.94	-10.4	38	82.1	91.5
[18]	-13.3	-1.53	60.7	82	91.3
[22]	5.96	-3.33	44.2	80.8	94.1
[23]	9.89	-3.46	22.4	41.1	75.4
[28]	-4.44	1.88	51	98.6	80.6

NCC(=O)Nc1ccc(-n2nc(C(F)(F)F)cc2-c2ccc3c(ccc4ccccc43)c2)cc1 (max concentration tested 25000 nM)
Details	drug sensitivity score
DERL-7 (IL-2 2.5 ng/mL) [7]	1.36
IMC-1 (IL-2 20 ng/mL) [11]	8.71
KAI3 (IL-2 2.5 ng/mL) [2]	8.11
KHYG-1 (IL-2 2.5 ng/mL) [6]	11.9
NK-92 (IL-2 2.5 ng/mL) [8]	8.05
NK-YS (IL-2 2.5 ng/mL) [4]	12.3
NKL (IL-2 2.5 ng/mL) [13]	6.99
SNK-6 (IL-2 2.5 ng/mL) [1]	9.36
YT (IL-2 2.5 ng/mL) [12]	7.45
[3]	6.06
[5]	6.08
[9]	0.67
[10]	1.49
[27]	7.63

percent inhibition of viability [%]
Details	2.5 nM	25 nM	250 nM	2500 nM	25000 nM
DERL-7 (IL-2 2.5 ng/mL) [20]	-6.63	0.68	3.86	-3.39	34.2
IMC-1 (IL-2 20 ng/mL) [24]	1.94	6.76	5.99	19.6	101
KAI3 (IL-2 2.5 ng/mL) [15]	13.1	14.3	13.5	14.9	104
KHYG-1 (IL-2 2.5 ng/mL) [19]	9.05	11.9	21.5	43.8	84.5
NK-92 (IL-2 2.5 ng/mL) [21]	-3.92	-7.91	18.1	14.3	106
NK-YS (IL-2 2.5 ng/mL) [17]	2.51	6.9	13.3	53.1	101
NKL (IL-2 2.5 ng/mL) [26]	9.41	11.2	10.1	18.2	76.8
SNK-6 (IL-2 2.5 ng/mL) [14]	2.2	12.3	18	28	101
YT (IL-2 2.5 ng/mL) [25]	8.95	9.77	11.9	10.6	104
[16]	-4.48	-1.93	9.24	3.09	101
[18]	-4.35	-2.12	12.8	2.37	102
[22]	4.23	-5.3	6.37	-4.79	24.2
[23]	-7.15	-17.6	-5.36	-14.6	41.8
[28]	1.57	3.13	3.22	12.5	101
